Results: US12649750B2, “Macrocyclic compounds, compositions, and methods of using thereof” (Sionna Therapeutics Inc., priority 2022, dated 2026)
One block for each compound: values may come before it.

Legend:
NBD1 = biological target: T1, NBD1 (Homo sapiens, UniProt P13569); assay: Aggregation analysis using differential static light scattering (DSLS), thermal stability of NBD1 (ΔTagg); type: binding; details: ΔTagg versus DMSO control, NBD1 0.2 mg/ml
T1 construct: Purified recombinant NBD1 was produced using previously described methods; made in house
In short: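 Purified recombinant NBD1 at 0.2 mg/ml in 50 mM Tris-HCl, 150 mM NaCl, 5 mM MgCl2, 2 mM ATP, 2 mM DTT, pH 7.6, 1% glycerol, with compound, heated 1° C./min to 70° C. under light-scattering monitoring. Tagg taken at curve inflection; ΔTagg is compound Tagg minus mean DMSO-control Tagg, binned A (≤5° C.), B (>5-≤10° C.), C (>10-≤25° C.).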

CFTR = biological target: T2, CFTR (Homo sapiens, UniProt P13569, DEL508-508); assay: TECC24 AUC fold over DMSO @10 μM, CFTR-mediated transepithelial chloride transport in CF-HBE cells; type: cell-based; details: test agent AUC divided by DMSO vehicle AUC, primary CF-HBE cells, ΔF508 homozygous donor, 48 hours incubation
T2 construct: Primary human bronchial epithelial cells from a ΔF508 homozygous CF donor; host or cells: primary human bronchial epithelial cells (CF-HBE), ΔF508 homozygous donor
In short: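 ΔF508-homozygous primary bronchial epithelial cells incubated 48 h at 36.5° C with compound (10 μM) in IL-13-containing medium, then TECC24 current-clamp recording in pH 7.4 Hepes saline with benzamil 10 μM, forskolin 10 μM, then CFTR inhibitor-172 20 μM. Equivalent Cl− current AUC between forskolin and inhibitor, expressed as fold over DMSO.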

T2 sequence (P13569 with tags, fused parts or gaps DEL508-508): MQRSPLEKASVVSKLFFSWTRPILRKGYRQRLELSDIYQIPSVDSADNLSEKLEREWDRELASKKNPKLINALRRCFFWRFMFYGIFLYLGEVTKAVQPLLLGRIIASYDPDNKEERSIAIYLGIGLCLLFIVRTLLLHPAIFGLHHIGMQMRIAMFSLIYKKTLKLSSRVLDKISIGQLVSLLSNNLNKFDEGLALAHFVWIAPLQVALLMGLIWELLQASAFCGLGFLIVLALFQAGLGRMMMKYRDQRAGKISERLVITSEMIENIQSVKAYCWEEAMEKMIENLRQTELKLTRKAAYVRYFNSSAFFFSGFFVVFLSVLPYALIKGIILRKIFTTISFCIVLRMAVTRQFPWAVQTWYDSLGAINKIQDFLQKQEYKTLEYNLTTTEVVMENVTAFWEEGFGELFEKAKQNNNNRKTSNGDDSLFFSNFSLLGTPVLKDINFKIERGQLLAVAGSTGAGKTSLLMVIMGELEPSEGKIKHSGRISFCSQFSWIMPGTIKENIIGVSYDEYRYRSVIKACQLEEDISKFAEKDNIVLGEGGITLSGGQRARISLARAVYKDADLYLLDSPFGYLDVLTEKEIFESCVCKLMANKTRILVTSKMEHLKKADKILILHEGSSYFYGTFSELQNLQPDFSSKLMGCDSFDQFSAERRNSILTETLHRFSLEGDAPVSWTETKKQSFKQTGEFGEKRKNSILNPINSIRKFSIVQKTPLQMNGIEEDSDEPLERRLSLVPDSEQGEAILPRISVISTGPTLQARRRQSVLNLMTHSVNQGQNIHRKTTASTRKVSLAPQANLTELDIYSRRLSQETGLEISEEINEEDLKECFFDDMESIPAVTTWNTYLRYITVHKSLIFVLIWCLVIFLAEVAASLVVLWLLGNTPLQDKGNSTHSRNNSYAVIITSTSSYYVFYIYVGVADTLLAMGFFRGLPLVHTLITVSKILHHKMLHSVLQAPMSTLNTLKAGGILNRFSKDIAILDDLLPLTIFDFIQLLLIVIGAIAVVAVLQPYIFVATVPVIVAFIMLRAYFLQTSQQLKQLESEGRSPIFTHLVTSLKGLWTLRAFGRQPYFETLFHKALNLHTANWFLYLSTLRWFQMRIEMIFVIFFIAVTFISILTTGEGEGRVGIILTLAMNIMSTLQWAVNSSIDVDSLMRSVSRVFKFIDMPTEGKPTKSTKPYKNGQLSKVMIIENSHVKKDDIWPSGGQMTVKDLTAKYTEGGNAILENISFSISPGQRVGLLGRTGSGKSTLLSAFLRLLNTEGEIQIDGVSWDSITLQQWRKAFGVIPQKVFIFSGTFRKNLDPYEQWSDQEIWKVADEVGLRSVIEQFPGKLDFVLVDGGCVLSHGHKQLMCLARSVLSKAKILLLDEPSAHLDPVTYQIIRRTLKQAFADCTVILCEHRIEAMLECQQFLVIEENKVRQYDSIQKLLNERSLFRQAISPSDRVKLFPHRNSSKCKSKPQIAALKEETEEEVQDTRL
T1 sequence (P13569 423-646 limits assumed): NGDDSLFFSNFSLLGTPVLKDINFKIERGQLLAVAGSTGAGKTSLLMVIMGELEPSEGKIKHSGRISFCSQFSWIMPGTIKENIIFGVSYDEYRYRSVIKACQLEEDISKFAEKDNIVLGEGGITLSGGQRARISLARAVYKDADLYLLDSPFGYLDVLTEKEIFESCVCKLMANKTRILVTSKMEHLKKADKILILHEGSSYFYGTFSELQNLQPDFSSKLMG

SMILES: Cn1nc2nc1-c1cc(ccc1F)Oc1c(F)cc3[nH]ccc3c1CCS(=O)(=O)CC(C)(C)CCCC2(C)c1cccc(/C=C2\CCOC2=O)c1 (stereo not shown) [Compound 172, (3E)-3-[[3-(22,28-Difluoro-3,6,10,10-tetramethyl-12,12-dioxo-24-oxa-12λ6-thia-3,4,19,30-tetrazapentacyclo[23.3.1.12,5.015,23.016,20]triaconta-1(29),2(30),4,15,17,20,22,25,27-nonaen-6-yl)phenyl]methylene]tetrahydrofuran-2-one]
DSLS 3D (100 μM ΔT) (NBD1): B (a value above 5 °C and less than or equal to 10 °C is marked “B”) | TECC (AUC, 10 μM) (CFTR): A (a TECC value less than 12 is marked “A”)

SMILES: Cn1nc2nc1-c1cc(ccc1F)Oc1c(F)cc3[nH]ccc3c1CCS(=O)(=O)CC(C)(C)CCCC2(C)c1cccc(CC2CCOC2=O)c1 (stereo not shown) [Compound 173, 3-[[3-(22,28-Difluoro-3,6,10,10-tetramethyl-12,12-dioxo-24-oxa-12λ6-thia-3,4,19,30-tetrazapentacyclo[23.3.1.12,5.015,23.016,20]triaconta-1(29),2(30),4,15,17,20,22,25,27-nonaen-6-yl)phenyl]methyl]tetrahydrofuran-2-one]
DSLS 3D (100 μM ΔT) (NBD1): B (a value above 5 °C and less than or equal to 10 °C is marked “B”) | TECC (AUC, 10 μM) (CFTR): C (a value between 20 and 80 is marked “C”)

SMILES: Cn1nc2nc1-c1cc(ccc1F)Oc1c(F)cc3[nH]ccc3c1CCS(=O)(=O)CC(C)(C)CCCC2(C)c1cccc(CC2NC(=O)NC2=O)c1 (stereo not shown) [Compound 175, 5-[[3-(22,28-Difluoro-3,6,10,10-tetramethyl-12,12-dioxo-24-oxa-12λ6-thia-3,4,19,30-tetrazapentacyclo[23.3.1.12,5.015,23.016,20]triaconta-1(29),2(30),4,15,17,20,22,25,27-nonaen-6-yl)phenyl]methyl]imidazolidine-2,4-dione]
DSLS 3D (100 μM ΔT) (NBD1): C (a value greater than 10 °C and less than or equal to 25 °C is marked “C”) | TECC (AUC, 10 μM) (CFTR): A (a TECC value less than 12 is marked “A”)

TECC (AUC, 10 μM) (CFTR): B (a value between 12-20 is marked “B”)
SMILES: Cn1nc2nc1-c1cc(ccc1F)Oc1c(F)cc3[nH]ccc3c1CCS(=O)(=O)CC(C)(C)CCCC2(C)c1cccc(C(O)C2NC(=O)NC2=O)c1 (stereo not shown) [Compound 176, 5-[[3-(22,28-Difluoro-3,6,10,10-tetramethyl-12,12-dioxo-24-oxa-12λ6-thia-3,4,19,30-tetrazapentacyclo[23.3.1.12,5.015,23.016,20]triaconta-1(29),2(30),4,15,17,20,22,25,27-nonaen-6-yl)phenyl]-hydroxy-methyl]imidazolidine-2,4-dione]
DSLS 3D (100 μM ΔT) (NBD1): C (a value greater than 10 °C and less than or equal to 25 °C is marked “C”)

SMILES: CCOC(=O)CC(O)c1cccc(C2(C)CCCC(C)(C)CS(=O)(=O)CCc3c(c(F)cc4[nH]ccc34)Oc3ccc(F)c(c3)-c3nc2nn3C)c1 (stereo not shown) [Compound 177, Ethyl 3-[3-(22,28-difluoro-3,6,10,10-tetramethyl-12,12-dioxo-24-oxa-12λ6-thia-3,4,19,30-tetrazapentacyclo[23.3.1.12,5.015,23.016,20]-triaconta-1(29),2(30),4,15,17,20,22,25,27-nonaen-6-yl)phenyl]-3-hydroxy-propanoate]
DSLS 3D (100 μM ΔT) (NBD1): B (a value above 5 °C and less than or equal to 10 °C is marked “B”) | TECC (AUC, 10 μM) (CFTR): C (a value between 20 and 80 is marked “C”)

SMILES: Cn1nc2nc1-c1cc(ccc1F)Oc1c(F)cc3[nH]ccc3c1CCS(=O)(=O)CC(C)(C)CCCC2(C)c1cccc(C(O)CC(=O)O)c1 (stereo not shown) [Compound 178, 3-[3-(22,28-Difluoro-3,6,10,10-tetramethyl-12,12-dioxo-24-oxa-12λ6-thia-3,4,19,30-tetrazapentacyclo[23.3.1.12,5.015,23.016,20]triaconta-1(29),2(30),4,15,17,20,22,25,27-nonaen-6-yl)phenyl]-3-hydroxy-propanoic Acid]
DSLS 3D (100 μM ΔT) (NBD1): C (a value greater than 10 °C and less than or equal to 25 °C is marked “C”) | TECC (AUC, 10 μM) (CFTR): C (a value between 20 and 80 is marked “C”)

TECC (AUC, 10 μM) (CFTR): B (a value between 12-20 is marked “B”)
SMILES: C[C@H](Cc1cccc([C@@]2(C)CCCC(C)(C)CS(=O)(=O)CCc3c(ccc4[nH]ccc34)Oc3ccc(F)c(c3)-c3nc2nn3C)c1)C(=O)O [Compound 190, (2R)-3-[3-[(6R)-28-fluoro-3,6,10,10-tetramethyl-12,12-dioxo-24-oxa-12λ6-thia-3,4,19,30-tetrazapentacyclo[23.3.1.12,5.015,23.016,20]triaconta-1(29),2(30),4,15,17,20,22,25,27-nonaen-6-yl]phenyl]-2-methyl-propanoic Acid]
DSLS 3D (100 μM ΔT) (NBD1): C (a value greater than 10 °C and less than or equal to 25 °C is marked “C”)

TECC (AUC, 10 μM) (CFTR): B (a value between 12-20 is marked “B”)
SMILES: C[C@@H](Cc1cccc([C@@]2(C)CCCC(C)(C)CS(=O)(=O)CCc3c(c(F)cc4[nH]ccc34)Oc3ccc(F)c(c3)-c3csc2n3)c1)C(=O)O [Compound 191, (2S)-3-[3-[(6R)-22,28-Difluoro-6,10,10-trimethyl-12,12-dioxo-24-oxa-4,12λ6-dithia-19,30-diazapentacyclo[23.3.1.12,5.015,23.016,20]triaconta-1(29),2,5(30),15,17,20,22,25,27-nonaen-6-yl]phenyl]-2-methyl-propanoic Acid]
DSLS 3D (100 μM ΔT) (NBD1): C (a value greater than 10 °C and less than or equal to 25 °C is marked “C”)

SMILES: C[C@@H](Cc1cccc([C@@]2(C)CCCC(C)(C)CS(=O)(=O)CCc3c(c(F)cc4[nH]ccc34)Oc3ccc(F)c(c3)-c3coc2n3)c1)C(=O)O [Compound 192, (2S)-3-[3-[(6R)-22,28-difluoro-6,10,10-trimethyl-12,12-dioxo-4,24-dioxa-12λ6-thia-19,30-diazapentacyclo[23.3.1.12,5.015,23.016,20]triaconta-1(29),2,5(30),15,17,20,22,25,27-nonaen-6-yl]phenyl]-2-methyl-propanoic Acid]
DSLS 3D (100 μM ΔT) (NBD1): C (a value greater than 10 °C and less than or equal to 25 °C is marked “C”) | TECC (AUC, 10 μM) (CFTR): C (a value between 20 and 80 is marked “C”)

SMILES: COC(=O)[C@H](C)Cc1csc(C2(C)CCCC(C)(C)CS(=O)(=O)CCc3c(c(F)cc4[nH]ccc34)Oc3ccc(F)c(c3)-c3nc2nn3C)c1 (stereo partly drawn) [Compound 193, Methyl (2R)-3-[5-(22,28-difluoro-3,6,10,10-tetramethyl-12,12-dioxo-24-oxa-12λ6-thia-3,4,19,30-tetrazapentacyclo[23.3.1.12,5.015,23.016,20]triaconta-1(29),2(30),4,15,17,20,22,25,27-nonaen-6-yl)-3-thienyl]-2-methyl-propanoate]
DSLS 3D (100 μM ΔT) (NBD1): B (a value above 5 °C and less than or equal to 10 °C is marked “B”) | TECC (AUC, 10 μM) (CFTR): C (a value between 20 and 80 is marked “C”)

TECC (AUC, 10 μM) (CFTR): B (a value between 12-20 is marked “B”)
SMILES: C[C@H](Cc1cccc([C@@]2(C)CCCC(C)(C)CS(=O)(=O)CCc3c(c(F)cc4[nH]ccc34)Oc3ccc(F)c(c3)C3=NN=C2S3)c1)C(=O)O [Compound 194, (2R)-3-[3-[(6R)-22,28-difluoro-6,10,10-trimethyl-12,12-dioxo-24-oxa-12λ6,30-dithia-3,4,19-triazapentacyclo[23.3.1.12,5.015,23.016,20]triaconta-1(29),2,4,15,17,20,22,25,27-nonaen-6-yl]phenyl]-2-methyl-propanoic Acid]
DSLS 3D (100 μM ΔT) (NBD1): A (an ΔTagg value less than or equal to 5 °C is marked “A”)

SMILES: C[C@H](Cc1cccc([C@@]2(C)CCCC(C)(C)CS(=O)(=O)CCc3c(c(F)cc4[nH]ccc34)Oc3ccnc(c3)-c3nc2nn3C)c1)C(=O)O [Compound 197, (2R)-3-[3-[(6R)-22-Fluoro-3,6,10,10-tetramethyl-12,12-dioxo-24-oxa-12λ6-thia-3,4,19,28,30-pentazapentacyclo[23.3.1.12,5.015,23.016,20]triaconta-1(29),2(30),4,15,17,20,22,25,27-nonaen-6-yl]phenyl]-2-methyl-propanoic Acid]
DSLS 3D (100 μM ΔT) (NBD1): C (a value greater than 10 °C and less than or equal to 25 °C is marked “C”) | TECC (AUC, 10 μM) (CFTR): C (a value between 20 and 80 is marked “C”)

SMILES: C[C@H](Cc1ccc(C2(C)CCCC(C)(C)CS(=O)(=O)CCc3c(c(F)cc4[nH]ccc34)Oc3ccc(F)c(c3)-c3nc2nn3C)s1)C(=O)O (stereo partly drawn) [Compound 198, (2R)-3-[5-(22,28-difluoro-3,6,10,10-tetramethyl-12,12-dioxo-24-oxa-12λ6-thia-3,4,19,30-tetrazapentacyclo[23.3.1.12,5.015,23.016,20]triaconta-1(29),2(30),4,15,17,20,22,25,27-nonaen-6-yl)-2-thienyl]-2-methyl-propanoic Acid]
DSLS 3D (100 μM ΔT) (NBD1): C (a value greater than 10 °C and less than or equal to 25 °C is marked “C”) | TECC (AUC, 10 μM) (CFTR): C (a value between 20 and 80 is marked “C”)

SMILES: Cn1nc2nc1-c1cc(ccc1F)Oc1c(F)cc3[nH]ccc3c1CCS(=O)(=O)CC(C)(C)CCCC2(C)c1cccc(CC2CCN(O)C2=O)c1 (stereo not shown) [Compound 199, 3-[[3-(22,28-Difluoro-3,6,10,10-tetramethyl-12,12-dioxo-24-oxa-12λ6-thia-3,4,19,30-tetrazapentacyclo[23.3.1.12,5.015,23.016,20]triaconta-1(29),2(30),4,15,17,20,22,25,27-nonaen-6-yl)phenyl]methyl]-1-hydroxy-pyrrolidin-2-one]
DSLS 3D (100 μM ΔT) (NBD1): C (a value greater than 10 °C and less than or equal to 25 °C is marked “C”) | TECC (AUC, 10 μM) (CFTR): C (a value between 20 and 80 is marked “C”)
